Results published in article PMC12330940, “Targeting the MDM2‐MDM4 interaction interface reveals an otherwise therapeutically active wild‐type p53 in colorectal cancer” (Molecular Oncology, 2025).
Ends that are not written are not given here.

Assays:
[1] = test system: immortalized lymphoblastoid cells (LCLs) from healthy donors; assay: Viability assay of lymphoblastoid cells (LCLs); type: cell-based, human; conditions: 4 biological replicates, Pep3S 10 µM, Nutlin 2.5 and 10 µM
HCT116 cells (wt-p53) = assay: PrestoBlue viability assay, 2D HCT116; type: cell-based, human; conditions: 2D HCT116, 96 h, three independent experiments
Text: (§1) Human colorectal carcinoma cells HCT116 wt‐p53 (RRID: CVCL_0291) were purchased from Sigma‐Aldrich (Darmstadt, Germany). HCT116 exon two knockout TP53 (hereafter p53^−/−) were obtained from Vogelstein's Lab, LoVo (Johns Hopkins University, Baltimore, MD, USA) (RRID: CVCL_0399) from Vitiani's lab (Istituto Superiore di Sanità, Roma, Italy). HCT116 and LoVo cells were maintained in DMEM low glucose (Sigma‐Aldrich) supplemented with 10% FBS (Gibco™, Walthman, MA, USA), 1% penicillin–streptomycin (Sigma‐Aldrich), 1% L‐glutamine (Sigma‐Aldrich) at 37 °C, 5% CO2. Lymphoblastoid cells from healthy donors (LCLs) were grown in RPMI‐1640 (Sigma‐Aldrich), supplemented with 15% FBS (Gibco™), 1% penicillin–streptomycin (Sigma‐Aldrich), 1% L‐glutamine (Sigma‐Aldrich). Primary human myoblasts (Lonza, Basel, Switzerland) were grown in SkGM‐2 medium (Lonza). Cell lines were maintained at 37 °C, 5% CO2.
Treatments (0.1% DMSO, 10 μM all peptides, 20 μM cisplatin, 10 μM Nutlin‐3a (Sigma‐Aldrich)) were administered every other day. […]
Cell viability was monitored every other day using PrestoBlue™ HS Cell Viability Reagent (Thermo Fisher Scientific). The fluorescence signal was read at 45′ (for 2D) or 1 h (for spheroids) using a spectrophotometer plate reader (Varioskan™ LUX; Thermo Fisher Scientific). Fluorescence excitation/emission: 570/610 nm.

human MDM2 = human MDM2 (Homo sapiens, UniProt Q00987); assay: in vitro affinity to MDM2 (dissociation constant); conditions: Scramble3S with spread ± 0.028, binding method not described
Chain of human MDM2 (Q00987 whole entry): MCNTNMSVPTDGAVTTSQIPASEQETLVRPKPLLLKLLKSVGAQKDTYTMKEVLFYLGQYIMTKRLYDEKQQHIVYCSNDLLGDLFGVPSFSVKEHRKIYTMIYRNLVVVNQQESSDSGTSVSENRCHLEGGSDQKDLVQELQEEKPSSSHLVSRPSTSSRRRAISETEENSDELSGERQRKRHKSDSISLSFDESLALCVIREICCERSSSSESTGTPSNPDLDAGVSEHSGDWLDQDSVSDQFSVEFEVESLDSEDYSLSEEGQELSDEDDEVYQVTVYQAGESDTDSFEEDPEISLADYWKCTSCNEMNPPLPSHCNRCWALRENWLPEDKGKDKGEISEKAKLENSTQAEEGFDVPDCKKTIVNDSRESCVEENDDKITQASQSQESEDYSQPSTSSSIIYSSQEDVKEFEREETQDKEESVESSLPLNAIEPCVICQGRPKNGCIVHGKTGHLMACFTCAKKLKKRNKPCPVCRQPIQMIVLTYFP

human myoblasts = assay: Proliferation of human myoblasts; type: cell-based; conditions: healthy human myoblasts
Text: as §1

p21 = conditions: cited from earlier work
Text: P21 has also shown anti‐apoptotic activity, which could contribute to antagonizing the p53‐mediated apoptotic response.

[2] = test system: SESN2, IGF1R, STAT1 mRNA in HCT116 cells; assay: SESN2, IGF1R, STAT1 mRNA RT-qPCR in HCT116; type: cell-based, human; conditions: HCT116, 48 h
Experimental: (§2) Gene expression was evaluated 48 h after treatment using quantitative real‐time PCR (7900HT Fast; Applied Biosystems, Foster City, CA, USA). RNA extraction was performed using TRIzol® Reagent (Invitrogen, Waltham, MA, USA). RNA (500/1000 ng from cells or mice, respectively) was reverse transcribed with SMART MMLV Reverse Transcriptase (Takara, Shiga, Japan) and subjected to PCR amplification using the SensiMix SYBR Lox‐ROX Kit (Meridian Bioscience, Cincinnati, OH, USA).

[3] = test system: p21 mRNA in HCT116 xenograft tumors; assay: p21 mRNA RT-qPCR in xenograft tumors; type: in vivo, mouse; conditions: n Pep3 = 3, n Pep3S = 5
Experimental: as §2
Animal studies obtained ethical approval from the Ministry of Health (Protocol N° 79/2023‐PR) and were conducted conforming to the institutional guidelines in compliance with named Italian legislation (DL N116, GU, suppl. 40, 18‐2‐1992). Inbred BALB/c nude mice (CAnN.Cg‐Foxn1^nu/J) obtained from the CNR‐IBBC‐EMMA‐Infrafrontier animal facility were housed in two per cage in the CNR‐IBBC‐EMMA‐Infrafrontier animal house. All animals were housed under controlled lighting conditions (daily light period, 07.00–19.00 h) at 20 ± 2° C, with ad libitum access to food (Emma 23, Mucedola, Settimo Milanese, Italy) and chlorinated filtered water. […] Tumor growth was followed and analyzed by luciferase activity over time. […] Bioluminescence acquisitions were performed with a Hybrid OI/CT system (MILabs, Houten, The Netherlands), and the images were analyzed using MILABS‐OI‐PP software. […]

p21 mRNA in LoVo cells = assay: p21 mRNA RT-qPCR in LoVo; type: cell-based, human; conditions: 48 h, three independent experiments
Experimental: as §2

[4] = ref [20], cited from earlier work
Text: To test Pep3S's tumor‐suppressive properties, we focused on colorectal cancer (CRC) cell lines. The frequency of the wild‐type (wt) p53 gene in CRC is approximately 40%, which offers a potential window for the therapeutic application of p53‐reactivating molecules. […] BIK levels were increased by Pep3S. […] To understand the molecular pathways underlying Pep3S activity, we analyzed differentially expressed genes (DEGs) by Pep3S and Pep3 compared to a mix of Scramble3 and Scramble3S in HCT116 cells using a p53‐transcriptional array containing 80 validated targets of the human p53 pat ...

[5] = test system: human p53 pathway target genes in HCT116 cells; assay: RT2 Profiler PCR Array Human p53 signaling pathway, HCT116; type: cell-based
Experimental: (§3) For human p53 signaling pathway analysis, the RT^2 Profiler PCR Array 384 well ‘Human p53 signaling pathway’ was used, following the manufacturer's instructions (Qiagen, Venlo, The Netherlands). Differences of ≥ 1.3‐fold were used as […] criteria. The hsa‐miR‐34a expression was analyzed using the TaqMan™ MicroRNA Assay (Thermo). The results were normalized to those obtained using snRNA RNU6B. Common targets of p53 and miR‐34a were evaluated using miRGator v3.0, miRTarBase, and TargetScanHuman.

p21 mRNA in HCT116 cells = assay: p21 mRNA RT-qPCR in HCT116; type: cell-based, human; conditions: HCT116, 48 h; three independent experiments
Experimental: as §2

miR-34a in LoVo cells = assay: miR-34a expression RT-qPCR in LoVo; type: cell-based, human; conditions: 48 h, two independent experiments
Experimental: as §3

miR-34a in HCT116 cells = assay: miR-34a expression RT-qPCR in HCT116; type: cell-based, human; conditions: HCT116, 48 h; two independent experiments
Experimental: as §3

[6] = test system: p21 mRNA in shMDM4 HCT116 cells; assay: p21 mRNA in shMDM4 vs shLacZ HCT116; type: cell-based, human; conditions: doxycycline-inducible shMDM4 vs shLacZ HCT116, 48 h treatment
Experimental: ShMDM4 and shLacZ (as control) HCT116 (wt‐p53 and p53^−/−) cells were obtained by transfection of doxycycline‐inducible silencing plasmids using jetPRIME transfection reagent (Polyplus, Illkirch‐Graffenstaden, France). Cells were maintained in DMEM low glucose (Sigma‐Aldrich) supplemented with 10% FBS (Gibco™) and 1% penicillin–streptomycin (Sigma‐Aldrich). After 24 h, the cells were selected with […] puromycin (Sigma‐Aldrich). Silencing was induced with 1 μg·mL^−1 doxycycline.
as §2

p53 = conditions: ref [4]; cited from earlier work
Text: The extent to which these additional events could be attributed to the dissociated proteins MDM4 or MDM2 remains to be ascertained. Indeed, the potential persistence of MDM2 and MDM4 binding to p53 represents a unique feature of p53 reactivating molecules. […] This is probably mediated by the binding of MDM2 to p53, which, although with reduced efficiency, controls the p53 protein levels. In ad ...

[7] = test system: p21 mRNA in immortalized lymphoblastoid cells (LCLs) from healthy donors; assay: p21 mRNA RT-qPCR in lymphoblastoid cells; type: cell-based, human; conditions: 48 h
Text: as §1, §2

[8] = comparative analysis, miRGator v3.0, miRTarBase, TargetScanHuman
[9] = heat map of DEGs modulated by Pep3 only

Q: With KVFIA [Pep3S] as the molecule, how does the cell proliferation [1] read?
A: The cell proliferation was “ineffective in reducing p21 levels and cell proliferation”.

Q: And the IC50 (HCT116 cells (wt-p53))?
A: Its IC50 is 5540 nM.

Q: And the Kd (human MDM2)?
A: Its Kd is 0.152 ± 0.007 nM.

Q: What about the cell proliferation (human myoblasts) of the same molecule?
A: Its cell proliferation is “did not alter cell proliferation”.

Q: For `Cc1ccnc(NC(c2cccc(Cl)c2Cl)c2ccc3cccnc3c2O)c1` (centres unmarked) [MMRi64], which p21 levels (p21; ref [21]) is on record?
A: Its p21 levels is “minimal induction of p21 followed by its strong downregulation”.

Q: For `OCc1ccc(-c2ccc(-c3ccc(CO)s3)o2)s1` [RITA], which p21 protein levels (p21; ref (43)) is on record?
A: The p21 protein levels was “caused the downregulation of p21 protein levels”.

Q: What does the source list for Ac-KEIQLVIKVFIA-NH2 [Pep3]?
A: DEG mRNA levels by RT-qPCR ([2]; SESN2, IGF1R, STAT1, two independent experiments): confirmed the downregulation of some of these DEGs; p21 mRNA levels [3]: Although less severe, Pep3 caused a similar decrease; p21 mRNA levels (p21 mRNA in LoVo cells): Although less severe, Pep3 caused a similar decrease; Kd (human MDM2): 0.245 ± 0.029 nM; mediators of pro-apoptotic activity ([4]; PIG3 and BIK): mediated by the activation of the pro‐oxidant p53‐targets PIG3 and BIK; IC50 ([4]; compared with Pep3S IC50, cell line not given): 10000 nM; pro-apoptotic activity linked to oxidative stress [4]: linked to the activation of an oxidative stress response; shared DEGs varying significantly between Pep3 and Pep3S ([5]; HCT116): 11/16; p21 levels in p53 array ([5]; HCT116, p53 array): not significantly altered; downregulated DEGs that are miR-34a targets, common to both peptides [5, 8]: 8 of the 10; uniquely downregulated DEGs that are miR-34a targets [5, 8]: 4/7; ADGRB1 expression [5, 9]: 0.64; BAX expression [5, 9]: 0.55; EGFR expression [5, 9]: 0.50; FASLG expression [5, 9]: 3.64; MCL1 expression [5, 9]: 0.59; NFKB1 expression [5, 9]: 0.51; PRKCA expression [5, 9]: 0.53; PTEN expression [5, 9]: 0.59; DEGs unique to the peptide ([5]; vs Scramble mix, HCT116): 8/33; p21 mRNA levels (p21 mRNA in HCT116 cells): Although less severe, Pep3 caused a similar decrease

Q: With `COc1ccc(C2=N[C@@H](c3ccc(Cl)cc3)[C@@H](c3ccc(Cl)cc3)N2C(=O)N2CCNC(=O)C2)c(OC(C)C)c1` [Nutlin‐3a] as the molecule, how does the “levels of some p53 targets by RT-qPCR” value ([2]; Fig. S3C,D) read?
A: The value was “opposite activity by upregulating the levels of some of these targets”.

Q: What about the “SESN2 mRNA level” value ([2]; two independent experiments) of the same molecule?
A: The value was “strong upregulation of SESN2”.

Q: And the miR-34a levels (miR-34a in LoVo cells)?
A: The miR-34a levels was “induced miR‐34a expression”.

Q: What about the miR-34a levels (miR-34a in HCT116 cells) of the same molecule?
A: The miR-34a levels was “induced miR‐34a expression”.

Q: What about the cell proliferation [1] of the same molecule?
A: Its cell proliferation is “highly potent”.

Q: And the “p21 mRNA levels” value (p21 mRNA in LoVo cells)?
A: Its value is “strongly induced p21 expression”.

Q: And the “effect of MDM4 silencing on p21 regulation” value [6]?
A: Its value is “ineffective in the upregulation mediated by Nutlin‐3a”.

Q: What about the p53 levels (p53) of the same molecule?
A: The p53 levels was “increase in p53 levels”.

Q: What about the p21 levels [7] of the same molecule?
A: Its p21 levels is “highly potent”.

Q: And the “p21 mRNA levels” value (p21 mRNA in HCT116 cells)?
A: The value was “strongly induced p21 expression”.

Q: With VAIKF [Scramble3S] as the molecule, how does the Kd (human MDM2) read?
A: Its Kd is 0.447 nM.
